Among the data in PubChem BioAssay (NCI) are TGI values, retold here.

SMILES strings stand for the structures.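 Cells were grown in 96-well plates and exposed to each compound for 48 hours at five concentrations; endpoints were interpolated linearly between bracketing concentrations, or set to the highest concentration if not reached. TGI is the concentration that stops growth completely.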 A value given as a limit tells only on which side of the number the result lay.

Among the test systems are CCRF-CEM leukemia; DU-145 prostate; MCF7 breast; MDA-MB-435; NCI-H522 lung; RXF 393 renal; SK-MEL-2 melanoma; SNB-75 CNS; TK-10 renal; OVCAR-5 ovarian.
Common to all, as to experiment: NCI anticancer screen, dose series, 48 h

For the molecule `COc1cc(-c2cc(-c3ccccc3)nc(-c3c(OC)ccc4c(C)cc(=O)oc34)c2)cc(OC)c1OC`, the TGI in the assay with CCRF-CEM leukemia, with DU-145 prostate, with MCF7 breast, in the assay on MDA-MB-435, with NCI-H522 lung and with RXF 393 renal was over 100 µM in each case. Besides, the TGI with SK-MEL-2 melanoma, in the assay with SNB-75 CNS and in the assay on TK-10 renal was over 100 µM in each case.

Consider `O=C(CCCN1CCC2(CC1)CC(=O)N(N1CCCCCC1)C2=O)c1ccccc1`, for which the TGI in the assay on CCRF-CEM leukemia, in the assay on DU-145 prostate, in the assay with MCF7 breast, in the assay on MDA-MB-435, in the assay with NCI-H522 lung and with OVCAR-5 ovarian was over 100 µM each time. In addition, the TGI in the assay on RXF 393 renal, in the assay on SK-MEL-2 melanoma, in the assay with SNB-75 CNS and in the assay on TK-10 renal was over 100 µM in each case.

Take `CCOC(=O)Cn1c(=O)c2nc(SC)sc2n(CC)c1=S`: the TGI in the assay on CCRF-CEM leukemia is over 100 µM; in the assay with DU-145 prostate, over 100 µM; with MCF7 breast it was over 100 µM; in the assay with MDA-MB-435, 3.2 µM; in the assay with NCI-H522 lung, over 100 µM; in the assay with OVCAR-5 ovarian it was over 100 µM. The TGI is over 100 µM in the assay on RXF 393 renal, over 100 µM with SK-MEL-2 melanoma, 52.4 µM in the assay with SNB-75 CNS and over 100 µM in the assay on TK-10 renal.

Regarding `Cc1nn(C(=O)c2ccc(Cl)cc2)c2c1C(c1ccccc1[N+](=O)[O-])SC(N)=N2` (configuration not stated), the TGI with CCRF-CEM leukemia, in the assay on DU-145 prostate, with MCF7 breast, in the assay on MDA-MB-435, with NCI-H522 lung and with OVCAR-5 ovarian was over 10 µM in each case. Moreover, the TGI was 2.25 µM with RXF 393 renal, over 10 µM in the assay with SK-MEL-2 melanoma, over 10 µM with SNB-75 CNS and over 10 µM with TK-10 renal.

In the case of `COC(=O)C1CN=CN1CCc1ccccc1` (configuration not stated), the TGI in the assay with CCRF-CEM leukemia, with DU-145 prostate, in the assay with MCF7 breast, in the assay on MDA-MB-435, in the assay with NCI-H522 lung and with OVCAR-5 ovarian was over 100 µM in each case. Also, the TGI with RXF 393 renal, in the assay with SK-MEL-2 melanoma, in the assay on SNB-75 CNS and with TK-10 renal was over 100 µM in each case.

`CCOP(=O)(OCC)C(C)(CC)N/C(=N/C(NC(C)=O)(C(F)(F)F)C(F)(F)F)NC1=NC(C(F)(F)F)(C(F)(F)F)N=C(C(F)(F)F)O1` (configuration not stated): the TGI was over 100 µM with CCRF-CEM leukemia; over 100 µM with DU-145 prostate; 68.8 µM with MCF7 breast; over 100 µM in the assay on MDA-MB-435; 77.7 µM with NCI-H522 lung; over 100 µM with OVCAR-5 ovarian. Further, the TGI in the assay on RXF 393 renal was 93.8 µM; with SK-MEL-2 melanoma, 62.3 µM; in the assay with SNB-75 CNS, 27.2 µM; in the assay on TK-10 renal it was over 100 µM.

Consider `CN(C)CCN(C)c1ccc2c(=O)n(CCN(C)C)c(=O)n3c4ccccc4c(=O)c1c23`, for which the TGI with CCRF-CEM leukemia worked out at 0.293 µM; in the assay on DU-145 prostate, 1.3 µM; with MCF7 breast it was 11.3 µM; in the assay with MDA-MB-435, 3.18 µM; in the assay with NCI-H522 lung, 2.8 µM; in the assay on OVCAR-5 ovarian, 12.1 µM. Also, the TGI with RXF 393 renal worked out at 11.2 µM; in the assay with SK-MEL-2 melanoma, 6.84 µM; in the assay with SNB-75 CNS it was 3.5 µM; with TK-10 renal, 5.43 µM.

On to `COC(=O)CNS(=O)(=O)c1ccc(-c2c3nc(c(-c4ccc(S(=O)(=O)NCC(=O)OC)cc4)c4ccc([nH]4)c(-c4ccc(S(=O)(=O)NCC(=O)OC)cc4)c4nc(c(-c5ccc(S(=O)(=O)NCC(=O)OC)cc5)c5ccc2[nH]5)C=C4)C=C3)cc1`, for which the TGI in the assay on CCRF-CEM leukemia, in the assay on DU-145 prostate, with MCF7 breast, in the assay on MDA-MB-435, with NCI-H522 lung and in the assay on OVCAR-5 ovarian was over 100 µM throughout. The TGI in the assay on RXF 393 renal, with SK-MEL-2 melanoma, with SNB-75 CNS and with TK-10 renal was over 100 µM throughout.

For the molecule `NC(=O)c1cc2ccc(O)cc2oc1=Nc1ccccc1`, the TGI in the assay with CCRF-CEM leukemia was over 100 µM; in the assay with DU-145 prostate, over 100 µM; in the assay with MCF7 breast it was over 100 µM; in the assay with MDA-MB-435, over 100 µM; in the assay with NCI-H522 lung it was 77.9 µM; in the assay with OVCAR-5 ovarian, over 100 µM. Also, the TGI in the assay with RXF 393 renal is over 100 µM; in the assay on SK-MEL-2 melanoma it was 53 µM; in the assay on SNB-75 CNS, 68.3 µM; with TK-10 renal, over 100 µM.

As to `O=C(CCc1ccc(O)c(O)c1)NCCc1cc(O)cc(O)c1`, the TGI with CCRF-CEM leukemia was over 100 µM; in the assay with DU-145 prostate, over 100 µM; with MCF7 breast, over 100 µM; in the assay with MDA-MB-435, 66.6 µM; in the assay on NCI-H522 lung it was over 100 µM; in the assay on OVCAR-5 ovarian, over 100 µM. Besides, the TGI in the assay on RXF 393 renal, with SK-MEL-2 melanoma, in the assay on SNB-75 CNS and in the assay with TK-10 renal was over 100 µM throughout.

Consider `COc1ccc(CNC(=O)NCn2cc(-c3ccccc3)nn2)cc1`, for which the TGI in the assay on CCRF-CEM leukemia, in the assay on DU-145 prostate, in the assay with MCF7 breast, with MDA-MB-435, in the assay with NCI-H522 lung and in the assay on OVCAR-5 ovarian was over 100 µM in each case. Moreover, the TGI in the assay on SK-MEL-2 melanoma, in the assay on SNB-75 CNS and in the assay on TK-10 renal was over 100 µM in each case.

Turning to `CCSc1n/c(=C\c2ccco2)c2nncn12`, the TGI in the assay with CCRF-CEM leukemia, in the assay on DU-145 prostate, in the assay on MCF7 breast, with MDA-MB-435, in the assay with NCI-H522 lung and in the assay on OVCAR-5 ovarian was over 100 µM in each case. Moreover, the TGI in the assay on SK-MEL-2 melanoma, in the assay with SNB-75 CNS and in the assay on TK-10 renal was over 100 µM throughout.

With `C[C@H](NC(=O)c1ccc(CNC(=O)/C=C/c2cccc(Oc3ccccc3)c2)cc1)c1ccccc1`, the TGI with CCRF-CEM leukemia, in the assay with DU-145 prostate, with MCF7 breast, in the assay on MDA-MB-435, in the assay with NCI-H522 lung and in the assay on OVCAR-5 ovarian was over 100 µM throughout. For the same molecule, the TGI with RXF 393 renal was 80.3 µM; in the assay with SK-MEL-2 melanoma, over 100 µM; with SNB-75 CNS, 44.2 µM; with TK-10 renal, over 100 µM.
